Measured values taken from PubChem BioAssay (NCI).
Where “and” joins values, the source holds several entries; their conditions need not be identical. Equal values may be shown once.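 Tested at 5 concentrations; 48 h exposure; 96-well plates; endpoints linearly interpolated, else capped at highest concentration. GI50 = concentration required for 50% inhibition of growth. TGI marks complete inhibition of growth.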

Columns and labels:
Assay in all cases: NCI-60 cell line screen, 48 h
UACC-257 melanoma = test system: UACC-257 melanoma
SR leukemia = test system: SR leukemia
RPMI-8226 leukemia = test system: RPMI-8226 leukemia
SF-268 CNS = test system: SF-268 CNS
MALME-3M melanoma = test system: MALME-3M melanoma
SK-OV-3 ovarian = test system: SK-OV-3 ovarian
M14 melanoma = test system: M14 melanoma
MCF7 breast = test system: MCF7 breast
U251 CNS = test system: U251 CNS
NCI-H226 lung = test system: NCI-H226 lung

Row | SMILES | TGI (UACC-257 melanoma) [µM] | TGI (SR leukemia) [µM] | TGI (RPMI-8226 leukemia) | TGI (SF-268 CNS) [µM] | TGI (MALME-3M melanoma) | TGI (SK-OV-3 ovarian) [µM] | TGI (M14 melanoma) [µM] | TGI (MCF7 breast) [µM] | TGI (U251 CNS) [µM] | TGI (NCI-H226 lung) [µM] | GI50 (RPMI-8226 leukemia) | GI50 (SF-268 CNS) | GI50 (M14 melanoma)
1 | CCOC(=O)/C(=C\NC#N)c1nc2ccccc2[nH]1 | > 100 | > 100 | > 100 µM | > 100 | > 100 µM | > 100 | > 100 | > 100 |  |  |  |  | 
2 | C[n+]1c(-c2ccc(/C=N/Nc3n[nH]c(=S)n3N/N=C/c3ccc(-c4cn5ccccc5[n+]4C)cc3)cc2)cn2ccccc21 | > 100 | > 100 | > 100 µM | > 100 |  | > 100 | > 100 | > 100 | > 100 |  |  |  | 
3 | CC[S+](C)c1ccc(-c2c3nc(c(-c4ccc([S+](C)CC)cc4)c4ccc([nH]4)c(-c4ccc([S+](C)CC)cc4)c4nc(c(-c5ccc([S+](C)CC)cc5)c5ccc2[nH]5)C=C4)C=C3)cc1 (configuration not stated) | > 100 | 87.5 | 41 µM | > 100 | > 100 µM | 95.5 | > 100 |  | > 100 |  |  |  | 
4 | Cc1ccc(-c2nc3n(c2/C=N\N=C(N)N)CCS3)cc1 | 30.5 | > 100 | 68.8 µM | 29.3 | 31.2 µM | 29 |  |  | 28.4 |  |  |  | 
5 | CCc1c(-c2coc(CC/C(C)=C/c3ccccc3)n2)oc(OC)c(C)c1=O | > 100 | 29.3 | > 100 µM | > 100 | > 100 µM | > 100 | > 61.4 |  | > 53.9 | > 100 |  |  | 
6 | CN1CCN(CCCCNc2cc3c4ccccc4c(NCCCCN4CCN(C)CC4)cc3c3ccccc23)CC1 | 19 |  | 4.14 µM | 8.04 | 5.09 µM | 29.4 | 2.16 | 2.71 | 4.21 | 45.4 |  |  | 
7 | COC(=O)Nc1nc2ccc(NS(=O)(=O)c3ccc(F)cc3)cc2[nH]1 |  |  | 81.2 µM | > 100 | > 100 µM | > 100 | > 100 | > 100 | > 100 | > 100 |  |  | 
8 | C=CC[C@@]1(C#N)C[C@H](C[C@]2(C#N)C[C@H](CCl)OC(C)(C)O2)OC(C)(C)O1 | > 100 | > 100 | > 100 µM | > 100 | > 100 µM | > 100 | > 100 |  | > 100 | > 100 |  |  | 
9 | CC[C@@]1(O)C(=O)OCc2c1cc1n(c2=O)Cc2c-1nc1ccccc1c2/C=N\NC(=O)C(N)=O | > 100 |  | > 100 µM | > 100 | > 79.3 µM | 27.5 | 14.3 | > 45.4 | 13.6 |  |  |  | 
10 | COc1ccc(-c2c(C(C)=O)c(-c3ccccc3)n(C3OC(COC(C)=O)C(OC(C)=O)C(OC(C)=O)C3OC(C)=O)c(=S)c2C#N)cc1O (configuration not stated) | > 100 | > 100 | 61.3 µM and > 100 µM | > 100 | 40.5 µM and 55.9 µM |  | > 100 | > 100 | > 100 |  | 11.3 µM and 47.5 µM | 32.6 µM and 76.2 µM | 36.2 µM and 93 µM
11 | CCOc1ccc(-n2c(=O)n3c(Nc4ccc(Cl)cc4)nc4c(c(=O)n(C)c(=O)n4C)n3c2=O)cc1 | 60.4 | 51.6 | 61.4 µM | > 100 |  |  |  | > 100 | > 100 | 74.5 |  |  | 
12 | Cc1cc(C)c(N)c(C)c1N | > 100 | > 100 | > 100 µM | > 100 | > 100 µM | > 100 | > 100 |  | > 100 |  |  |  | 
13 | CCC(=O)n1c(=O)n(-c2ccc([N+](=O)[O-])cc2)c(=O)n1C(=O)CC | > 100 | > 100 | > 100 µM | > 100 |  | > 100 | > 100 | > 100 | > 100 | > 100 |  |  | 
14 | O=C1O[C@H](COC(=O)c2ccccc2)[C@@H](OC(=O)c2ccccc2)C=C1OC(=O)c1ccccc1 | 69.3 | 46.9 | 71.8 µM | 36.8 |  | > 100 | 31.9 | 91.3 | 32.3 | 45.6 |  |  | 
15 | Cc1noc(C)c1N=Nc1ccc2nonc2c1N | > 100 | > 100 | > 100 µM | > 100 | > 100 µM | > 100 | > 100 | > 100 |  |  |  |  | 
16 | CCCCCCCCCCOC1C(C(C)OCCCN(C)C)OC2OC3(CCCCC3)OC21 (configuration not stated) | 35.5 |  | 17.4 µM | 30.5 | 29.5 µM | 32.7 | 10.2 | 42.8 | 28.4 | 38.1 |  |  | 
17 | CC1=NN(C(=O)c2ccccc2)C(=O)C1N=Nc1ccccc1C(=O)O (configuration not stated) |  |  | > 100 µM | > 100 | > 100 µM | > 100 |  | 19 | > 100 | > 73.7 |  |  | 
